Assay results reported in ChEMBL document CHEMBL1201862, “PubChem BioAssay data set” (2004).
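Protocol summary: plate cells (96-well), add compound at 5 concentrations, incubate 48 h, interpolate endpoints linearly. GI50 = concentration required for 50% inhibition of growth.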 The source made the active and inactive calls. No stated cut-off is given here; in the data, active = GI50 up to about 1.1 µM and inactive = higher.

Columns and labels:
Test in all cases: growth of human tumour cells (NCI), 48 h
M19-MEL = tested on: M19-MEL
DLD-1 = tested on: DLD-1
XF498 = tested on: XF498
LXFL 529 = tested on: LXFL 529
DMS-114 = tested on: DMS-114
DMS-273 = tested on: DMS-273
HOP-18 = tested on: HOP-18
RXF 631 = tested on: RXF 631
SNB-78 = tested on: SNB-78

Measured: GI50

CC(C)(C)OC(=O)N[C@H]1CC(O)c2ccccc2N(CC(=O)O)C1=O (stereo partly specified)
inactive: M19-MEL > 100 µM | DLD-1 > 100 µM | XF498 > 100 µM | LXFL 529 > 100 µM | DMS-114 > 100 µM | DMS-273 > 100 µM | HOP-18 > 100 µM | RXF 631 > 100 µM

C/C(CN1C(=O)c2ccccc2C1=O)=N\NS(=O)(=O)c1ccccc1
inactive: M19-MEL > 100 µM | DLD-1 > 100 µM | LXFL 529 > 100 µM | DMS-114 > 100 µM | SNB-78 > 100 µM | DMS-273 > 100 µM | HOP-18 > 100 µM | RXF 631 > 100 µM

Cc1ccc(Cc2c(=O)[nH]nc3ccccc23)cc1
inactive: M19-MEL > 100 µM | DLD-1 > 100 µM | XF498 30.2 µM | DMS-114 > 100 µM | SNB-78 > 100 µM | DMS-273 > 100 µM | HOP-18 > 100 µM | RXF 631 > 100 µM

Cc1cc2c(C)n(Cc3ccc(Cl)cc3Cl)nc2c(C(=O)O)c1C
inactive: M19-MEL > 100 µM | DLD-1 > 100 µM | XF498 > 100 µM | LXFL 529 > 100 µM | SNB-78 > 100 µM | DMS-273 > 100 µM | HOP-18 > 100 µM | RXF 631 > 100 µM

COc1ccc(/C=N/N=C(\N)NO)c(OC)c1C
inactive: DLD-1 29 µM | LXFL 529 3.62 µM | DMS-114 13.2 µM | SNB-78 20.5 µM | HOP-18 5.24 µM

O=C1CCC2(c3ccc(F)cc3)Nc3ccccc3N12 (stereo unspecified)
inactive: M19-MEL > 100 µM | DLD-1 > 100 µM | XF498 > 100 µM | LXFL 529 > 100 µM | DMS-114 > 100 µM | SNB-78 > 100 µM | RXF 631 > 100 µM

C/C=C1\CCC2c3[nH]c4ccccc4c3CCN2C1 (stereo unspecified)
inactive: M19-MEL > 100 µM | DLD-1 > 100 µM | XF498 17.1 µM | LXFL 529 > 100 µM | DMS-114 91.8 µM | SNB-78 > 100 µM | DMS-273 > 100 µM

COc1ccc(NC(=O)C2=CC(=O)c3ccc(O)cc3C2=O)c(OC)c1
inactive: M19-MEL > 100 µM | DLD-1 > 100 µM | XF498 > 100 µM | LXFL 529 > 100 µM | DMS-114 > 100 µM | SNB-78 > 100 µM | HOP-18 > 100 µM | RXF 631 > 100 µM

Nc1ccc(CCN2CCN(c3cccc(C(F)(F)F)c3)CC2)cc1
inactive: M19-MEL > 100 µM | DLD-1 97.1 µM | XF498 > 100 µM | LXFL 529 > 100 µM | DMS-114 26.4 µM | HOP-18 > 100 µM | RXF 631 56.5 µM

S=C(N/N=C/c1ccccc1)NC1CC(c2ccccc2)Oc2ccccc21 (stereo unspecified)
inactive: M19-MEL > 100 µM | DLD-1 91.8 µM | XF498 34.5 µM | LXFL 529 > 100 µM | DMS-114 43.2 µM | SNB-78 22 µM | DMS-273 66.7 µM

N#C/C(=C\c1ccc[nH]1)C(=O)c1ccccc1
inactive: M19-MEL > 100 µM | DLD-1 > 100 µM | LXFL 529 > 100 µM | DMS-114 > 100 µM | SNB-78 > 100 µM | DMS-273 > 100 µM | HOP-18 70.3 µM | RXF 631 > 100 µM

O=C(O)C1CC2CC(=O)C1C2 (stereo unspecified)
inactive: M19-MEL > 100 µM | DLD-1 > 100 µM | XF498 > 100 µM | LXFL 529 > 100 µM | SNB-78 > 100 µM | DMS-273 > 100 µM | HOP-18 > 100 µM | RXF 631 > 100 µM

COc1cccc(NC(=O)CSc2nnc(Cc3ccccc3)o2)c1
inactive: M19-MEL > 100 µM | DLD-1 > 100 µM | LXFL 529 > 100 µM | DMS-114 > 100 µM | SNB-78 > 100 µM | DMS-273 > 100 µM | HOP-18 > 100 µM

COc1cc2cc3c4c(cc(OC)c(OC)c4c2cc1OC)CCN3C(=O)CCCC(=O)O
inactive: M19-MEL > 100 µM | DLD-1 > 100 µM | LXFL 529 > 100 µM | DMS-114 > 100 µM | SNB-78 48.1 µM | DMS-273 > 100 µM

O=C(CC1C(=O)Nc2ccccc2[S+]1[O-])Nc1cccc(Cl)c1 (stereo unspecified)
inactive: M19-MEL > 100 µM | DLD-1 > 100 µM | XF498 > 100 µM | LXFL 529 91.8 µM | DMS-114 47.1 µM | SNB-78 40.9 µM | HOP-18 > 100 µM

CCOc1ccc(NCC2CC/C(=C\c3ccc(Cl)cc3)C2=O)cc1 (stereo unspecified)
inactive: M19-MEL > 42.4 µM | DLD-1 10 µM | XF498 19.3 µM | LXFL 529 13.1 µM | DMS-114 26.4 µM | SNB-78 98.9 µM | DMS-273 > 39.8 µM | HOP-18 22.1 µM

CC(=O)NC(CCCNC(=O)N(CCCl)N=O)C(=O)NCc1ccccc1 (stereo unspecified)
inactive: M19-MEL > 100 µM | DLD-1 58.6 µM | XF498 > 100 µM | LXFL 529 > 100 µM | DMS-114 > 100 µM | DMS-273 > 100 µM | HOP-18 > 100 µM

CSc1nc2c(c(O)c(C)c(=O)n2C2OCC(OC(C)=O)C(OC(C)=O)C2OC(C)=O)c(=O)n1C (stereo unspecified)
inactive: M19-MEL > 100 µM | DLD-1 > 100 µM | LXFL 529 > 100 µM | DMS-114 > 100 µM | SNB-78 > 100 µM

Cc1ccccc1C1SCc2nc3ccccc3n21 (stereo unspecified)
inactive: M19-MEL > 100 µM | DLD-1 > 100 µM | DMS-114 6.79 µM | SNB-78 > 100 µM | DMS-273 4.6 µM | HOP-18 > 100 µM

CCOC(=O)/C(O)=C(/C(=O)OC)c1ccc(Cl)cc1
inactive: M19-MEL > 100 µM | DLD-1 > 100 µM | XF498 > 100 µM | LXFL 529 > 100 µM | DMS-114 > 100 µM | SNB-78 > 100 µM | DMS-273 > 100 µM | RXF 631 > 100 µM

CCC1CC(C)=CCN1S(=O)(=O)c1ccc(C)cc1 (stereo unspecified)
inactive: LXFL 529 12.9 µM | DMS-114 15.9 µM | DMS-273 22 µM

CC12Oc3ccc4ccccc4c3CC1Cc1c(ccc3ccccc13)O2 (stereo unspecified)
inactive: M19-MEL > 100 µM | DLD-1 58.1 µM | LXFL 529 45.4 µM | DMS-114 60.1 µM | DMS-273 18.8 µM | HOP-18 35.9 µM

CN/C(=N\C#N)N(Cc1ccccc1)Cc1ccccc1
inactive: M19-MEL > 100 µM | DLD-1 > 100 µM | XF498 > 100 µM | LXFL 529 > 100 µM | SNB-78 > 100 µM | DMS-273 > 100 µM

NN/C(Cc1ccccc1)=N/NC(N)=S
inactive: M19-MEL > 100 µM | DLD-1 > 100 µM | XF498 > 100 µM | LXFL 529 > 100 µM | DMS-114 41.3 µM | DMS-273 > 100 µM | HOP-18 24 µM | RXF 631 > 100 µM

N=C(N)/N=C(/C=C/c1ccccc1)CC1OC(=O)c2ccccc21 (stereo unspecified)
inactive: M19-MEL > 100 µM | DLD-1 > 100 µM | XF498 > 100 µM | LXFL 529 > 100 µM | DMS-114 > 100 µM | DMS-273 > 100 µM

C1=CC2SSSC2C1 (stereo unspecified)
inactive: M19-MEL > 100 µM | DLD-1 > 100 µM | XF498 > 100 µM | LXFL 529 > 100 µM | DMS-114 > 100 µM | DMS-273 > 100 µM | HOP-18 > 100 µM

COc1ccc(CCN(C)C2CCC(C#N)(c3ccc(OC)c(OC)c3)CC2)cc1OC (stereo unspecified)
inactive: M19-MEL > 100 µM | DLD-1 > 100 µM | XF498 > 100 µM | LXFL 529 > 100 µM | DMS-273 > 100 µM | HOP-18 > 100 µM | RXF 631 61.2 µM
